Literature values in US20080057111A1 (priority 2006, published 2008).

system: not given; details: not given

Structure (SMILES) | anti-endotoxin activity in vivo
O=C(O)c1ccccc1 [benzoic acid] | anti-endotoxin activity
Nc1ccccc1C(=O)O [σ-aminobenzoic acid] | anti-endotoxin activity
COc1cc(C(=O)O)cc(OC)c1O [syringic acid] | anti-endotoxin activity
O=C(O)c1ccccc1O [salicylic acid] | anti-endotoxin activity

system: severe acute respiratory syndrome (SARS) virus; details: recent report

Structure (SMILES) | effect on SARS virus
OC[C@H]1O[C@@H](Oc2c[nH]c3ccccc23)[C@H](O)[C@@H](O)[C@@H]1O [indican] | inhibitory effect
O=C1/C(=C2\Nc3ccccc3C2=O)Nc2ccccc21 [indigo] | inhibitory effect
CC[C@H](CC[C@@H](C)[C@H]1CC[C@H]2[C@@H]3CC=C4C[C@@H](O)CC[C@]4(C)[C@H]3CC[C@]12C)C(C)C [beta-sitosterol] | inhibitory effect
C=CCC(=NOS(=O)(=O)O)S[C@@H]1O[C@H](CO)[C@@H](O)[C@H](O)[C@H]1O (stereo in doubt) [sinigrin] | inhibitory effect
O=c1c(-c2ccc(O)cc2)coc2cc(O)ccc12 [daidzein] | inhibitory effect
COc1ccc([C@@H]2CC(=O)c3c(O)cc(O)cc3O2)cc1O [hespertin] | inhibitory effect
